Data on one compound can be found in US11419869B2, “Dosage forms and regimens for amino acid compounds” (Pliant Therapeutics, Inc., priority 2019, dated 2022).

Test [1] concerns normal bronchial epithelial cell adhesion to LAP. Put plainly: normal bronchial epithelial cell adhesion to LAP (FIG. 3A). Type of test: cell-based.
In test [2] the test system is normal (healthy) human bronchial epithelial cells. Description: LAP adhesion binding assay, normal human bronchial epithelial cells. Type of test: cell-based. Particulars: cell index (electrical impedance), FIG. 3A. How it is done: (§1) Two latency associated peptide (LAP) adhesion binding assays were devised using primary human lung cells, including normal (healthy) human bronchial epithelial cells and human lung fibroblasts (healthy and IPF).
(§2) Human bronchial epithelial cells are known to express αvβ6 integrin in culture. Human bronchial epithelial cells were prepared for the assay by dissociation with trypsin/EDTA and were then seeded at 20,000 cells per well on 96 well plates (ACEA Bioscience E-plate View, Acea Biosciences; San Diego, Calif.) previously coated with 5 μg/ml of recombinant human LAP (R&D Systems; Minneapolis, Minn.) and blocked with 4% bovine serum albumin. Cell index (electrical impedance) was measured to assess cell attachment/spreading every 3 minutes for 24 hours at 37° C./5% CO2 using the xCELLigence RTCA MP Instrument (Acea Biosciences; San Diego, Calif.).

The next test deals with COL1A1 expression. Description: Precision cut lung slices from human IPF explants, COL1A1 expression (Example B11). Type of test: cell-based. The text has this: Explanted lung tissue was obtained from human IPF subjects and inflated with agarose as described in the preceding examples. Biopsy cores were obtained from the agarose-inflated lung tissue. The biopsy cores were subjected to precision slicing to obtain several hundred μm thick. Individual slices were distributed in a multiwell culture plate and cultured for […] under control (DMSO) and test compound conditions. The viability of the slices over the course of culturing was confirmed by WST-1 assay of mitochondrial activity.
PCLS from 5-7 idopathic pulmonary fibrosis (IPF) lung tissue samples were cultured for seven days with one of: DMSO; Compound 5 at 200 nM; nintedanib at 75 nM; pirfenidone at 50 μm; a combination of Compound 5 at 200 nM and nintedanib at 75 nM; a combination of Compound 5 at 200 nM and pirfenidone at […]; or an Alk5 inhibitor at 1 μm. […] FIG. 6D is a bar graph showing relative expression of COL1A1 in precision cut lung slices (PCLS) from idopathic pulmonary fibrosis (IPF) lung tissue upon exposure to Comopund 5, clinical standard of care compounds nintedanib (Nin) and pirfenidone (Pirf), and an ALK5 inhibitor, all versus DMSO control.
PCLS from a single IPF lung tissue sample were cultured for seven days with Compound 5 at concentrations of […], 2 nM, 60 nM, 200 nM, and 1 μM, along with 0.1% DMSO control and an Alk5 inhibitor at 1 μM. […] COL1A1 expression is also graphed for the PCLS in the presence of 0.1% DMSO control, and an Alk5 inhibitor at 1 μM.

In test [3] the test system is Type I Collagen gene Col1a1 expression. Description: Precision cut lung slices, mice under acute bleomycin exposure (Example B8). Type of test: cell-based. Conditions: 3 days culture, normalized to DMSO, FIG. 5A. How it is done: Mice (C57BL/6) were administered 3 U/kg of bleomycin (Teva Pharmaceuticals; North Wales, Pa.) on day 0 via oropharyngeal aspiration while under anesthesia. On day 14, precision cut lung slices were obtained. Following euthanization, 2% low gelling temp agarose was injected into the mouse lungs via the trachea. […] The lobes were then subjected to precision slicing to obtain samples for culture using a microtome (Compresstome VF-300-0Z, Precisionary; Greenville, N.C.). Individual slices were distributed in a multiwell culture plate and cultured for 3 days under control (DMSO) and test compound conditions.

The subject of test [4] is IPF-derived human lung fibroblasts. Description: LAP adhesion binding assay, IPF-derived human lung fibroblasts. Type of test: cell-based. Particulars: adhesion to LAP, cell index (electrical impedance), FIG. 3B. How it is done:
as §1
as §2, with “lung fibroblasts derived from normal and IPF lung tissue” for “bronchial epithelial cells”, “αvβ1 integrin. The IPF-derived human lung fibroblasts” for “αvβ6 integrin in culture. Human bronchial epithelial cells”, “trypsin/EDTA,” for “trypsin/EDTA”, “were” for “were then”, “Calif.). […] In the assay, the IPF-derived human lung fibroblasts were separately incubated with: the αvβ1-selective small molecule inhibitor; the selective antibody αvβ6 inhibitor, 3G9; and compound 5.” for “Calif.).”

For the next test, the system named is Mice (C57BL/6). Description: Murine bleomycin model (Example B7). Type of test: in vivo. On the procedure:
Mice (C57BL/6) were divided into healthy (n=15), vehicle-treated (n=15), and test article-treated (n=15 per dose) groups. Mice in the vehicle and test article-treated groups were administered 3 U/kg of bleomycin (Teva Pharmaceuticals; North Wales, Pa.) via oropharyngeal aspiration while under anesthesia on day 0. Healthy animals were administered water in a similar fashion. Starting on day 7, mice in the control group were administered PBS vehicle, 130 μL, by oral gavage, BID for 14 days. Also starting on day 7, mice in the test group were administered compound 5 in PBS by oral gavage, BID for 14 days, at relative dosages of 1×, 2.5× and 5×. […] From day 14 through day 21, 9 of the 15 mice were administered ^2H2O for labeling. All mice were sacrificed on day 21 and tissues were collected. Samples were prepared for analysis either directly from lung tissue, or by bronchoalveolar lavage, which washes out the bronchiolar and alveolar space with saline to produce a bronchoalveolar lavage fluid (BALF) in which 80-90% of cells are alveolar macrophages.
FIG. 4C is a graph showing that compared to the healthy mice, lung tissue in the vehicle-treated mice experienced a substantial increase in SMAD3 phosphorylation, which is a measure of TGF-β signaling-related kinase activity. […] FIG. 4D is a graph showing that compared to the healthy mice, lung tissue in the vehicle-treated mice experienced a substantial accumulation of new collagen as evidenced by the percentage of lung collagen containing ^2H-labeled hydroxyproline.
FIGS. 4F, 4G, and 4H show high resolution second harmonic generation images of fibrillar collagen (collagen type I and III) taken from formalin-fixed paraffin embedded lung tissue sections from a healthy mouse lung (4F), a vehicle-treated mouse lung (4G) and a test-article treated mouse lung (4H; 500 mg/kg BID). Color scale is indicative of collagen fiber density (red=most dense; blue=least dense).
FIG. 4I is a graph showing the percent total collagen area in the second harmonic generation mouse lung images. Large structural areas of collagen found similarly in healthy and fibrotic tissues (dense collagen fibers surrounding airways were excluded from this analysis to focus on interstitial fibrotic collagen). […] The 1×, 2.5×, and 5× dosages were at the same absolute values in mg/kg as in Example B7.
The data for FIGS. 4J and 4K, was obtained 14 days after bleomycin challenge in mice were treated with compound 5 at 2.5× dose (PO, BID for 1.5 days).

`COCCN(CCCCc1ccc2c(n1)NCCC2)CC[C@H](Nc1ncnc2ccccc12)C(=O)O` [Compound 5, (S)-4-((2-methoxyethyl) (4-(5,6,7,8-tetrahydro-1,8-naphthyridin-2-yl)butyl)amino)-2-(quinazolin-4-ylamino) butanoic acid]: the “normal bronchial epithelial cell adhesion to LAP” value in test [1] and in test [2] was “substantially inhibited” throughout. Moreover, the “COL1A1 expression, dose dependence” value with COL1A1 expression (PCLS from a single IPF lung sample, seven days, 200 pM to 1 μM, FIG. 6E) is on record as “dose dependent reduction”. Besides, the “reduction in COL1A1 expression” value in the test with COL1A1 expression (PCLS from a single IPF lung sample, seven days, at ≥2 nM, FIG. 6E) was at least 47 % reduction. Also, in the test on COL1A1 expression (human IPF slices, 3 days, 3G9 ≥400 ng/mL, compound 5 179 nM, ALK5 inhibitor 1 μM, FIG. 6C), the “lung Col1a1 expression” value is recorded as “substantial, statistically significant (p<0.01 vs vehicle) decrease”. Besides, the “Type I Collagen gene Col1a1 expression” value in test [3] is recorded as “decreased Type I Collagen gene Col1a1 expression substantially”. Further, in test [4], the “cell adhesion in the IPF-derived lung fibroblasts” value is reported as “substantially inhibited”. In addition, the “pSMAD3 levels in lung and BALF cells vs. plasma drug exposure” value in the test with Mice (C57BL/6) (14 days after bleomycin, […] dose PO BID for 1.5 days, FIGS. 4J, 4K) was “close inverse relationship”. Besides, the “percent total collagen area in second harmonic generation lung images” value in the test with Mice (C57BL/6) (bleomycin mice, 1× (p<0.05), […] (p<0.01), 5× (p<0.0001 vs vehicle), FIG. 4I) is recorded as “substantial, statistically significant dose-dependent reduction”. Also, in the test with Mice (C57BL/6) (bleomycin mice, 1× and 5× (p<0.01 vs vehicle), FIG. 4D), the “accumulated new collagen (percentage of lung collagen containing 2H-labeled hydroxyproline)” value was “dose-dependent reduction”. For the same compound, the “total pulmonary collagen, as measured by μg of hydroxyproline” value with Mice (C57BL/6) (bleomycin mice, 1×, […], 5× (p<0.05 vs vehicle), FIG. 4E) is “reduction in total pulmonary collagen”. In addition, in the test with Mice (C57BL/6) (bleomycin mice, oral gavage BID 14 days at 1×, […], 5×, vs vehicle, FIG. 4C), the “SMAD3 phosphorylation in lung tissue” value is reported as “substantial, statistically significant dose-dependent reductions”. For the same compound, the “pSMAD3 levels in the lung” value with Mice (C57BL/6) (bleomycin mice, time- and dose-dependent inhibition) is “approximately 50 % of the untreated levels”.
